Reference: patent publication US10799536B2, “Method of treating multiple myeloma using natural killer cells expressing a chimeric antigen receptor for CD38” (Onkimmune Limited, priority 2016, dated 2020)
Read-outs that look alike come from different tables or passages of the source.

Legend:
DR5 [1] = settings: for DR5 expression, MFI: 24 hours, FIG. 20
Description: Bortezomib was bought from Millennium Pharmaceuticals.

DR4 = DR4 (Homo sapiens, UniProt O00220); settings: surface plasmon resonance; WO 2009/077857; cited from earlier work
decoy receptor DcR1 = target: T1, decoy receptor DcR1 (Homo sapiens, UniProt O14798); settings: surface plasmon resonance; WO 2009/077857; cited from earlier work
T1 sequence (O14798 26-236): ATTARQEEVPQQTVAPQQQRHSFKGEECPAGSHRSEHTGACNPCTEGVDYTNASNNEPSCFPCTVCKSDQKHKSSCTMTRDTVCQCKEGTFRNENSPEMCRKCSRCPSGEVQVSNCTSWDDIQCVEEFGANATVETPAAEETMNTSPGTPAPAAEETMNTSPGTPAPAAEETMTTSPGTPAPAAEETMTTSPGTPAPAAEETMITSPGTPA

CTLA4 gene = test: gRNA cleavage in K562 cells, T7E1 mismatch detection assay; type: cell-based, human; settings: FIG. 7
Protocol: (§1) Cells having inhibitory receptor function removed were prepared as follows. gRNA constructs were designed and prepared to target genes encoding the ‘classical’ inhibitory receptor LIR2 and the ‘checkpoint’ inhibitory receptor CTLA4 in the human genome of NK cells. CRISPR/Cas9 genome editing was then used to knock out the LIR2 and CTLA4 target genes.
(§2) Two gRNA candidates were selected for each target gene and their cleavage efficacies in K562 cells determined.
(§3) K562 cells were transfected with the prepared gRNA constructs (FIG. 5) and subsequently harvested for PCR amplification. The presence of GFP expression was used to report successful incorporation of the gRNA construct into the K562 cells. This confirmed expression of the Cas9 gene and therefore the ability to knock out expression of the LIR2 and CTLA4 genes. The cleavage activity of the gRNA constructs was determined using an in vitro mismatch detection assay. T7E1 endonuclease I recognizes and cleaves non-perfectly matched DNA, allowing the parental LIR2 and CTLA4 genes to be compared to the mutated genes following CRISPR/Cas9 transfection and non-homologous end joining (NHEJ).

LIR2 gene = test: as above; type: cell-based, human; settings: FIG. 6
Protocol: as §1, §2, §3
The three bands corresponding to each mutation relate to the parental gene (601) and the two resulting strands following detection of a mismatch in the DNA sequence after transfection (602 and 603).

DR5 [2] = target: DR5 (Homo sapiens, UniProt O14763); settings: D269H/E195R mutation, relative to wildtype TRAIL; cited from earlier work
[3] = test system: decoy receptors (DcR1 and DcR2); settings: D269H/E195R mutation, relative to wildtype TRAIL; cited from earlier work

Question: With `CC(C)C[C@H](NC(=O)[C@H](Cc1ccccc1)NC(=O)c1cnccn1)B(O)O` [Bortezomib] as the molecule, how does the “DR5 expression, MFI” value (DR5 [1]; MM1.S cells, 2.5 nm of Bortezomib, untreated MFI 214) read?
Answer: The value was 662.

Question: And the “DR5 expression, MFI” value (DR5 [1]; RPMI 8226 cells, 10 nm Bortezomib, untreated MFI 273)?
Answer: Its value is 679.

Question: And the “DR5 expression at high doses” value (DR5 [1]; high doses of Bortezomib)?
Answer: The value was “could not be upregulated”.

Question: For “Wildtype TRAIL: TNF-related apoptosis-inducing ligand, wild-type protein”, which Kd (DR4) is on record?
Answer: The Kd was over 2 nM.

Question: And the Kd (decoy receptor DcR1)?
Answer: Its Kd is over 20 nM.

Question: With “g7 gRNA: gRNA targeting hCTLA4, CACTCACCTTTGCAGAAGACAGG (SEQ ID NO: 26) (listed as DNA, chemistry not fully specified; listed as Homo sapiens)” as the molecule, how does the “success rate of transfection (CTLA4 knockout)” value (CTLA4 gene) read?
Answer: Its value is 32%.

Question: Which “success rate of transfection (LIR2 knockout)” value (LIR2 gene) does the source give for “g9 gRNA: gRNA targeting hLIR2, GAGTCACAGGTGGCATTTGGCGG (SEQ ID NO: 24) (listed as DNA, chemistry not fully specified; listed as Homo sapiens)” here?
Answer: Its value is 11%.

Question: Which “success rate of transfection (CTLA4 knockout)” value (CTLA4 gene) does the source give for “g15 gRNA: gRNA targeting hCTLA4, CCTTGTGCCGCTGAAATCCAAGG (SEQ ID NO: 27) (listed as DNA, chemistry not fully specified; listed as Homo sapiens)” here?
Answer: The value was 26%.

Question: For “g18 gRNA: gRNA targeting hLIR2, CGAATCGCAGGTGGTCGCACAGG (SEQ ID NO: 25) (listed as DNA, chemistry not fully specified; listed as Homo sapiens)”, which “success rate of transfection (LIR2 knockout)” value (LIR2 gene) is on record?
Answer: The value was 10%.

B1: TRAIL variant: TRAIL variant of WO 2009/077857, wildtype TRAIL gene containing the D269H/E195R mutation (protein)
chain: MAMMEVQGGPSLGQTCVLIVIFTVLLQSLCVAVTYVYFTNELKQMQDKYSKSGIACFLKEDDSYWDPNDEESMNSPCWQVKWQLRQLVRKMILRTSEETISTVQEKQQNISPLVRERGPQRVAAHITGTRGRSNTLSSPNSKNEKALGRKINSWESSRSGHSFLSNLHLRNGELVIHEKGFYYIYSQTYFRFQERIKENTKNDKQMVQYIYKYTSYPDPILLMKSARNSCWSKDAEYGLYSIYQGGIFELKENDRIFVSVTNEHLIDMHHEASFFGAFLVG
Question: Which “affinity of the TRAIL variant for DR5” value (DR5 [2]) does the source give for B1 here?
Answer: The value was “significantly increases”.

Question: What about the “affinity for both decoy receptors (DcR1 and DcR2)” value [3] of the same molecule?
Answer: Its value is “reducing”.
